Data reported in ChEMBL document CHEMBL4118242, “Computer-aided discovery and biological characterization of human lactate dehydrogenase 5 inhibitors with anti-osteosarcoma activity” (Bioorg Med Chem Lett, 2018).
The source made the active and inactive calls. The calls are words filed in the database; no cut-off is given here.

Legend:
[1] = target: T1, L-lactate dehydrogenase A chain (Homo sapiens, UniProt P00338); test: Inhibition of LDH5 in human MG63 cells assessed as increase in oxygen consumption rate at 1 to 10 uM after 4 hrs; format: cell-based
[2] = target: T1, L-lactate dehydrogenase A chain; test: Inhibition of human LDH5 using pyruvate as substrate after 10 mins
[3] = target: T1, L-lactate dehydrogenase A chain; test: Inhibition of human LDH5 at 1 uM using pyruvate as substrate after 10 mins
MG-63 [4] = test: Antiproliferative activity against human MG63 cells after 72 hrs by MTT assay; format: functional, cell-based; details: MG-63, 72 h
MG-63 [5] = test: Antiproliferative activity against human MG63 cells at 10 uM after 72 hrs by MTT assay; format: functional, cell-based
[6] = target: T1, L-lactate dehydrogenase A chain; test: Inhibition of LDH5 in human MG63 cells assessed as induction of ROS generation at 5 to 10 uM after 4 hrs by DCFH-DA staining-based fluorescence assay; format: cell-based
[7] = target: T1, L-lactate dehydrogenase A chain; test: Inhibition of LDH5 in human MG63 cells assessed as decrease in extracellular acidification rate after 4 hrs; format: cell-based
[8] = target: T1, L-lactate dehydrogenase A chain; test: Inhibition of LDH5 in human MG63 cells assessed as decrease in lactate formation after 4 hrs; format: cell-based
MG-63 [9] = test: Antiproliferative activity in human MG63 cells at 4 uM after 24 to 72 hrs by IncuCyte zoom live cell imaging method; format: functional, cell-based
MG-63 [10] = test: Antiproliferative activity against human MG63 cells at 4 uM after 72 hrs by MTT assay; format: functional, cell-based
[11] = target: T1, L-lactate dehydrogenase A chain; test: Inhibition of LDH5 in human MG63 cells assessed as increase in oxygen consumption rate at 1 uM after 4 hrs; format: cell-based
[12] = target: T1, L-lactate dehydrogenase A chain; test: Inhibition of human LDH5 at 10 uM using pyruvate as substrate after 10 mins

Compound	EC50 [2] [nM]	inhibition [3]	IC50 (MG-63 [4]) [nM]	Activity (MG-63 [5])	Activity (MG-63 [10])	inhibition [12]	further results
COc1cccc(CN2CCCCC23CC3)c1OC[C@@H](O)CN1CCOCC1	390	Active	3180	Active			Activity [1]: Active; Activity [6]: Active; inhibition [7]: Dose-dependent effect; inhibition [8]: Dose-dependent effect; Activity (MG-63 [9]): Active
Cc1cccc(OC[C@H](O)CN2CCN(CCN3C(=O)c4cccc5cccc(c45)C3=O)CC2)c1C	670	Active		Active	inactive		
O=C(Cn1ccnc1-c1ccccc1)NC[C@@H]1COc2ccccc2O1				Active	inactive		
O=C1N[C@](c2ccc(N3CCOCC3)cc2)(c2ccsc2)CC(O)=C1Sc1ccccc1Cl			660				Activity [11]: Active
Cc1nc(C)c(CC(=O)N2CCN(CCOc3ccccc3)CC2)c(=O)[nH]1						inactive	
COc1ccc([C@@H](NCc2c[nH]nc2-c2ccc(F)cc2)c2ccncc2)cc1						inactive	
